# Experimental data reported in PubChem BioAssay (NCI).
#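 Cells were grown in 96-well plates and exposed to each compound for 48 hours at five concentrations; endpoints were interpolated linearly between bracketing concentrations, or set to the highest concentration if not reached. GI50 marks 50% less growth. TGI denotes the concentration required for complete inhibition of growth.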
# How the values were obtained:
# Assay in all cases: growth of human tumour cells (NCI), 48 h
# NCI/ADR-RES ovarian = test system: NCI/ADR-RES ovarian
# A549 NSCLC = test system: A549 NSCLC
# CCRF-CEM leukemia = test system: CCRF-CEM leukemia
# MDA-MB-231 breast = test system: MDA-MB-231 breast
# U251 CNS = test system: U251 CNS
# LOX IMVI melanoma = test system: LOX IMVI melanoma
# MOLT-4 leukemia = test system: MOLT-4 leukemia
# SF-295 CNS = test system: SF-295 CNS
# SW-620 colon = test system: SW-620 colon
# HOP-92 NSCLC = test system: HOP-92 NSCLC
# SK-OV-3 ovarian = test system: SK-OV-3 ovarian
# SK-MEL-2 melanoma = test system: SK-MEL-2 melanoma
# NCI-H460 lung = test system: NCI-H460 lung
# MDA-MB-435 = test system: MDA-MB-435
# SNB-19 CNS = test system: SNB-19 CNS
# NCI-H23 lung = test system: NCI-H23 lung
# OVCAR-4 ovarian = test system: OVCAR-4 ovarian
# EKVX NSCLC = test system: EKVX NSCLC
# UO-31 renal = test system: UO-31 renal
# SN12C renal = test system: SN12C renal
# T-47D breast = test system: T-47D breast
# SK-MEL-5 melanoma = test system: SK-MEL-5 melanoma
# COLO 205 colon = test system: COLO 205 colon
# HS 578T breast = test system: HS 578T breast
# HCT-116 colon = test system: HCT-116 colon
# PC-3 prostate = test system: PC-3 prostate
# SF-268 CNS = test system: SF-268 CNS
# IGROV1 ovarian = test system: IGROV1 ovarian
compound,measurement,setting,value
CN(C)CCn1c2ccccc2c2nc3cc4ccccc4cc3nc21,GI50,NCI/ADR-RES ovarian,2.62 µM
same,TGI,NCI/ADR-RES ovarian,15.3 µM
same,GI50,A549 NSCLC,1.02 µM
same,TGI,A549 NSCLC,4.52 µM
same,GI50,CCRF-CEM leukemia,6.37 µM
same,TGI,CCRF-CEM leukemia,21.1 µM
same,GI50,MDA-MB-231 breast,2.51 µM
same,TGI,MDA-MB-231 breast,15.3 µM
same,GI50,U251 CNS,2.93 µM
same,TGI,U251 CNS,14.1 µM
same,GI50,LOX IMVI melanoma,1.16 µM
same,TGI,LOX IMVI melanoma,2.42 µM
same,GI50,MOLT-4 leukemia,2.76 µM
same,TGI,MOLT-4 leukemia,12.4 µM
same,GI50,SF-295 CNS,1.8 µM
same,TGI,SF-295 CNS,12 µM
same,GI50,SW-620 colon,2.08 µM
same,TGI,SW-620 colon,12.9 µM
same,GI50,HOP-92 NSCLC,0.0473 µM
same,TGI,HOP-92 NSCLC,2.12 µM
same,GI50,SK-OV-3 ovarian,3.98 µM
same,TGI,SK-OV-3 ovarian,17.2 µM
same,GI50,SK-MEL-2 melanoma,8.51 µM
same,TGI,SK-MEL-2 melanoma,21.5 µM
same,GI50,NCI-H460 lung,1.17 µM
same,TGI,NCI-H460 lung,14.5 µM
same,GI50,MDA-MB-435,4.19 µM
same,TGI,MDA-MB-435,16.7 µM
same,GI50,SNB-19 CNS,5.8 µM
same,TGI,SNB-19 CNS,18.9 µM
same,GI50,NCI-H23 lung,2.86 µM
same,TGI,NCI-H23 lung,14.6 µM
same,GI50,OVCAR-4 ovarian,5.95 µM
same,TGI,OVCAR-4 ovarian,22.1 µM
same,GI50,EKVX NSCLC,3.36 µM
same,TGI,EKVX NSCLC,16.2 µM
same,GI50,UO-31 renal,0.335 µM
same,TGI,UO-31 renal,11.6 µM
same,GI50,SN12C renal,2 µM
same,TGI,SN12C renal,15.9 µM
same,GI50,T-47D breast,3.52 µM
same,TGI,T-47D breast,19.4 µM
same,GI50,SK-MEL-5 melanoma,2.88 µM
same,TGI,SK-MEL-5 melanoma,11.9 µM
same,GI50,COLO 205 colon,2.12 µM
same,TGI,COLO 205 colon,10.4 µM
same,GI50,HS 578T breast,12.6 µM
same,TGI,HS 578T breast,39 µM
same,GI50,HCT-116 colon,2.08 µM
same,TGI,HCT-116 colon,14.1 µM
same,GI50,PC-3 prostate,2.44 µM
same,TGI,PC-3 prostate,13.5 µM
same,GI50,SF-268 CNS,3.8 µM
same,TGI,SF-268 CNS,16.4 µM
same,GI50,IGROV1 ovarian,1.63 µM
same,TGI,IGROV1 ovarian,14.2 µM
